Holding throughout (format): functional
Test [1] in a line: Antiproliferative activity against human PANC1 cells after 48 hrs by SRB assay. The settings on record: PANC-1, 48 h.
The nature of test [2]: Antiproliferative activity against human HeLa cells after 48 hrs by SRB assay. (In SRB staining, fixed cells bind dye roughly in proportion to their protein.)
A short description of test [3]: Antiproliferative activity against human MDA-MB-231 cells after 48 hrs by SRB assay. The settings on record: MDA-MB-231, 48 h.

Where only a bound is given, the exact number is not on record here.

As to `Cn1c(=O)c(C(=O)NCCC(=O)N2CCCCC2)c(O)c2ccccc21`, the GI50 in test [1] (read-out: GI50) is 150 nM; in test [1] (read-out: pGI50 (converted)) it was 150 nM; in test [2] (read-out: GI50) it was 820 nM; in test [2] (read-out: pGI50 (converted)) it was 820 nM; in test [3] (read-out: GI50) it was 1400 nM; in test [3] (read-out: pGI50 (converted)), 1400 nM.
`Cn1c(=O)c(C(=O)NCCC(=O)N2CCN(c3ccccc3F)CC2)c(O)c2ccccc21`: the GI50 in test [1] (read-out: GI50) was 2500 nM; in test [1] (read-out: pGI50 (converted)), 2500 nM; in test [2] (read-out: GI50), 960 nM; in test [2] (read-out: pGI50 (converted)), 960 nM; in test [3] (read-out: GI50), 1700 nM; in test [3] (read-out: pGI50 (converted)), 1700 nM.
On to `CCN1CCN(C(=O)CCNC(=O)c2c(O)c3ccccc3n(C)c2=O)CC1`, for which the GI50 in test [1] (read-out: GI50) is 480 nM; in test [1] (read-out: pGI50 (converted)), 480 nM; in test [2] (read-out: GI50) it was 880 nM; in test [2] (read-out: pGI50 (converted)) it was 880 nM; in test [3] (read-out: GI50), 1320 nM; in test [3] (read-out: pGI50 (converted)), 1320 nM.
Consider `Cn1c(=O)c(C(=O)NCCC(=O)N2CCN(Cc3ccccc3)CC2)c(O)c2ccccc21`, for which the GI50 in test [1] (read-out: GI50) was 950 nM; in test [1] (read-out: pGI50 (converted)), 950 nM; in test [2] (read-out: GI50) it was 760 nM; in test [2] (read-out: pGI50 (converted)), 760 nM; in test [3] (read-out: GI50) it was 510 nM; in test [3] (read-out: pGI50 (converted)), 510 nM.
In the case of `COc1ccccc1N1CCN(C(=O)CCNC(=O)c2c(O)c3ccccc3n(C)c2=O)CC1`, the GI50 in test [1] (read-out: GI50) was 700 nM; in test [1] (read-out: pGI50 (converted)) it was 700 nM; in test [2] (read-out: GI50), 740 nM; in test [2] (read-out: pGI50 (converted)) it was 740 nM; in test [3] (read-out: GI50), 1200 nM; in test [3] (read-out: pGI50 (converted)), 1200 nM.
Regarding `COC(=O)Nc1nc2cc(C(=O)c3cccs3)ccc2[nH]1` [NOCODAZOLE], the GI50 in test [1] (read-out: GI50), in test [2] (read-out: GI50) and in test [3] (read-out: GI50) was under 10 nM in each case.
In the case of `Cn1c(=O)c(C(=O)NCCC(=O)N2CCC(Cc3ccccc3)CC2)c(O)c2ccccc21`, the GI50 is 680 nM in test [1] (read-out: GI50); 680 nM in test [1] (read-out: pGI50 (converted)); 1400 nM in test [2] (read-out: GI50); 1400 nM in test [2] (read-out: pGI50 (converted)); 710 nM in test [3] (read-out: GI50); 710 nM in test [3] (read-out: pGI50 (converted)).
For `COc1ccc(C[C@@H](O)c2cc(OC)c(OC)c(OC)c2)cc1O` [COMBRETASTATIN], the GI50 in test [1] (read-out: GI50) is 59 nM; in test [1] (read-out: pGI50 (converted)) it was 59 nM; in test [2] (read-out: GI50) it was 83 nM; in test [2] (read-out: pGI50 (converted)), 83 nM; in test [3] (read-out: GI50) it was 90 nM; in test [3] (read-out: pGI50 (converted)), 90 nM.
For the compound `Cn1c(=O)c(C(=O)NCCC(=O)N2CCN(c3ccc([N+](=O)[O-])cc3)CC2)c(O)c2ccccc21`, the GI50 in test [1] (read-out: GI50) is 420 nM; in test [1] (read-out: pGI50 (converted)), 420 nM; in test [2] (read-out: GI50), 940 nM; in test [2] (read-out: pGI50 (converted)), 940 nM; in test [3] (read-out: GI50) it was 300 nM; in test [3] (read-out: pGI50 (converted)), 300 nM.
Turning to `Cn1c(=O)c(C(=O)NCCC(=O)N2CCSCC2)c(O)c2ccccc21`, the GI50 was 1910 nM in test [1] (read-out: GI50); 1910 nM in test [1] (read-out: pGI50 (converted)); 3000 nM in test [2] (read-out: GI50); 3000 nM in test [2] (read-out: pGI50 (converted)); 2250 nM in test [3] (read-out: GI50); 2250 nM in test [3] (read-out: pGI50 (converted)).
Regarding `Cn1c(=O)c(C(=O)NCCC(=O)N2CCN(c3ccc(C(F)(F)F)cc3)CC2)c(O)c2ccccc21`, the GI50 in test [1] (read-out: GI50) was 2550 nM; in test [1] (read-out: pGI50 (converted)) it was 2550 nM; in test [2] (read-out: GI50), 3700 nM; in test [2] (read-out: pGI50 (converted)) it was 3700 nM; in test [3] (read-out: GI50) it was 5400 nM; in test [3] (read-out: pGI50 (converted)), 5400 nM.
`COc1cccc(N2CCN(C(=O)CCNC(=O)c3c(O)c4ccccc4n(C)c3=O)CC2)c1`: the GI50 was 510 nM in test [1] (read-out: GI50); 510 nM in test [1] (read-out: pGI50 (converted)); 730 nM in test [2] (read-out: GI50); 730 nM in test [2] (read-out: pGI50 (converted)); 1300 nM in test [3] (read-out: GI50); 1300 nM in test [3] (read-out: pGI50 (converted)).
Consider `Cn1c(=O)c(C(=O)NCCC(=O)N2CCN(c3ccccc3)CC2)c(O)c2ccccc21`, for which the GI50 is 1570 nM in test [1] (read-out: GI50); 1570 nM in test [1] (read-out: pGI50 (converted)); 3900 nM in test [2] (read-out: GI50); 3900 nM in test [2] (read-out: pGI50 (converted)); 1620 nM in test [3] (read-out: GI50); 1620 nM in test [3] (read-out: pGI50 (converted)).
Take `CN1CCN(C(=O)CCNC(=O)c2c(O)c3ccccc3n(C)c2=O)CC1`: the GI50 in test [1] (read-out: GI50) was 1660 nM; in test [1] (read-out: pGI50 (converted)), 1660 nM; in test [2] (read-out: GI50), 1160 nM; in test [2] (read-out: pGI50 (converted)), 1160 nM; in test [3] (read-out: GI50), 590 nM; in test [3] (read-out: pGI50 (converted)) it was 590 nM.

The values are drawn from ChEMBL document CHEMBL3877265, “Design, synthesis and docking studies of novel 1,2-dihydro-4-hydroxy-2-oxoquinoline-3-carboxamide derivatives as a potential anti-proliferative agents” (2017).
